The text below walks through data of patent publication US11130769B2 (Prelude Therapeutics Incorporated, priority 2018, dated 2021).

For orientation: IC50 means the concentration at which inhibition is half-maximal.

Read-outs that look alike come from different tables or passages of the source. Some results are limits rather than exact numbers.

One test addresses MCL-1 (Homo sapiens (Human), UniProt Q07820). The test can be described thus: Cell free Mcl-1:Bim affinity assay (fluorescence polarization competition). Type of test: binding. To be noted: 15 nM MCL-1, 5 nM FITC-Bim, 1 hour at room temperature, read-out: BIM_Ki. In outline: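 Compounds competed with FITC-labelled Bim peptide (5 nM) for MCL-1 (15 nM) in HEPES/NaCl buffer with 1% DMSO, 1 h at room temperature. Fluorescence polarization (535 nm emission) gave % inhibition versus DMSO and positive controls; IC50 from 10-point curves, converted to Ki by the Nikolovska-Coleska equation.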
(In fluorescence polarisation assays a small probe gives low polarisation when free and higher when bound to something large.)

The next test concerns H929 cells. The experiment in a line: Cell viability assay (H929 10 FBS). Type of test: cell-based. Conditions: read-out: H929_10FBS IC50. In outline: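 H929 cells, 4000/well, in RPMI 1640 with 10% FBS, sodium pyruvate, HEPES and glucose were exposed to compound 24 h at 37 °C. Viability read as luminescence after 30-60 min at RT with CellTiter-Glo or ATPlite 1 Step.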
[1] abbreviates: Homo sapiens, NCI-H929, 24 hours.

MCL-1, sequence (Q07820 whole entry): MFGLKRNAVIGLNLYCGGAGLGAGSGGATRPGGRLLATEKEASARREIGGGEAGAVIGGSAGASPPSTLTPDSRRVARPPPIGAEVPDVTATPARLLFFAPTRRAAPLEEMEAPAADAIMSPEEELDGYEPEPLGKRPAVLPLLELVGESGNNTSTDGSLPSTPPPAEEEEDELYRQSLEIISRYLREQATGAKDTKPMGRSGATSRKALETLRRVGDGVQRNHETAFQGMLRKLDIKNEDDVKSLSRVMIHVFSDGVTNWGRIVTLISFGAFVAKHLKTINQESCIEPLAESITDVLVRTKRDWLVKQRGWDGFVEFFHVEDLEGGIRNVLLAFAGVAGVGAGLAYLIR

In the case of `CO[C@H]1/C=C/CC[C@H](C)C(=O)NS(=O)(=O)c2ccc3c(c2)N(C[C@@H]2CC[C@H]21)C[C@@]1(CCCc2cc(Cl)ccc21)CO3` [Example 85, (3R,6R,7S,8E,12S,22S)-6′-Chloro-7-methoxy-12-methyl-15,15-dioxo-spiro[20-oxa-15-thia-1,14-diazatetracyclo[14.7.2.03,6.019,24]pentacosa-8,16(25),17,19(24)-tetraene-22,1′-tetralin]-13-one], the Ki at MCL-1 (class symbols) was in the range of 1 to 100 nM. Further, in the test on H929 cells (setting [1]), the IC50 was more than 1000 nM.

Regarding `COC[C@@H]1CCCN1C(=O)O[C@H]1/C=C/COC(C)(C)C(=O)NS(=O)(=O)c2ccc3c(c2)N(C[C@@H]2CC[C@H]21)C[C@@]1(CCCc2cc(Cl)ccc21)CO3` [Example 160, [(3R,6R,7S,8E,22S)-6′-Chloro-12,12-dimethyl-13,15,15-trioxo-spiro[11,20-dioxa-15-thia-1,14-diazatetracyclo[14.7.2.03,6.019,24]pentacosa-8,16,18,24-tetraene-22,1′-tetralin]-7-yl] (2S)-2-(methoxymethyl)pyrrolidine-1-carboxylate], the Ki at MCL-1 (class symbols) is less than 1 nM. In addition, in the test on H929 cells (setting [1]), the IC50 is less than 500 nM.

As to “(4′Z,5′E)-6-Chloro-3,4-dihydro-2H-spiro[naphthalene-1,3′-13-thia-12-aza-1(5,7)-benzo[b][1,4]oxazepina-3(4,1)-pyrazolacyclotridecaphanen]-5′-en-11′-one 13′,13′-dioxide and (4′Z,5′Z)-6-chloro-3,4-dihydro-2H-spiro[naphthalene-1,3′-13-thia-12-aza-1(5,7)-benzo[b][1,4]oxazepina-3(4,1)-pyrazolacyclotridecaphanen]-5′-en-11′-one 13′,13′-dioxide [Example 11]”, at MCL-1 (numeric values), the Ki was 503 nM. Further, in the test on H929 cells (24 hours), the IC50 is more than 1000 nM.

Take `CO[C@@H]1CCN(C(=O)O[C@H]2/C=C/COC(C)(C)C(=O)NS(=O)(=O)c3ccc4c(c3)N(C[C@@H]3CC[C@H]32)C[C@@]2(CCCc3cc(Cl)ccc32)CO4)C1` [Example 58, [(3R,6R,7S,8E,22S)-6′-Chloro-12,12-dimethyl-13,15,15-trioxo-spiro[11,20-dioxa-15-thia-1,14-diazatetracyclo[14.7.2.03,6.019,24]pentacosa-8,16,18,24-tetraene-22,1′-tetralin]-7-yl] (3R)-3-methoxypyrrolidine-1-carboxylate]: at MCL-1 (class symbols), the Ki is less than 1 nM. Further, the IC50 in the test on H929 cells (setting [1]) was less than 500 nM.

Consider `CC1(C)CN(C(=O)O[C@H]2/C=C/COC(C)(C)C(=O)NS(=O)(=O)c3ccc4c(c3)N(C[C@@H]3CC[C@H]32)C[C@@]2(CCCc3cc(Cl)ccc32)CO4)CCO1` [Example 158, [(3R,6R,7S,8E,22S)-6′-Chloro-12,12-dimethyl-13,15,15-trioxo-spiro[11,20-dioxa-15-thia-1,14-diazatetracyclo[14.7.2.03,6.019,24]pentacosa-8,16,18,24-tetraene-22,1′-tetralin]-7-yl] 2,2-dimethylmorpholine-4-carboxylate], for which the Ki on MCL-1 (class symbols) was less than 1 nM. Also, the IC50 in the test with H929 cells (setting [1]) is less than 500 nM.

Take `CO[C@@H]1/C=C/CC[C@@H](C)C(=O)NS(=O)(=O)c2ccc3c(c2)N(C[C@@H]2CC[C@H]21)C[C@@]1(CCCc2cc(Cl)ccc21)CO3` [Example 72, (3R,6R,7R,8E,12R,22S)-6′-Chloro-7-methoxy-12-methyl-15,15-dioxo-spiro[20-oxa-15-thia-1,14-diazatetracyclo[14.7.2.03,6.019,24]pentacosa-8,16(25),17,19(24)-tetraene-22,1′-tetralin]-13-one]: the Ki at MCL-1 (class symbols) was in the range of 1 to 100 nM. Besides, the half-inhibitory concentration (IC50) with H929 cells (setting [1]) was more than 1000 nM.

Consider `O=C(CCc1ccncc1)NS(=O)(=O)c1ccc2c(c1)N(CC1CCC1)C[C@@]1(CCCc3cc(Cl)ccc31)CO2` (racemic) [Example 20, 3-Pyridin-4-yl-N-[rac-(3S)-6′-chloro-5-(cyclobutylmethyl)spiro[2,4-dihydro-1,5-benzoxazepine-3,1′-tetralin]-7-yl]sulfonyl-propanamide], for which the Ki at MCL-1 (numeric values) is 21.8 nM. Further, the IC50 in the test with H929 cells (setting [1]) is more than 1000 nM.
